# Test results: patent publication US6706699B2, “Quinolines and uses thereof” (Ariad Pharmaceuticals, Inc., priority 2001, dated 2004)
# Experiment: Hydroxyapatite assay (hydroxyapatite adsorption chromatography, bone-targeting potential)
# Format: physicochemical
# Settings: corrected retention K=(retention time−void time)/void on TSK-Gel HA 1000 column; linear gradient 10 mM to 500 mM sodium phosphate, 0.15 N NaCl, pH 6.8
# Method: Hydroxyapatite is the principal mineral component of bone. Hydroxyapatite adsorption chromatography is used as an assay to evaluate the bone-targeting potential of both individual bone-targeting moieties (“monomers”) and of pharmaceuticals incorporating bone-targeting groups.
# Method: The rentention time of a test compound is measured using a linear gradient from 10 mM sodium phosphate, 0.15 N NaCl, pH=6.8 to 500 mM sodium phosphate, 0.15 N NaCl, […] on a TSK-Gel HA 1000 high pressure liquid chromatography column (7.5 mm×75 mm). […] This K value is corrected using two reference compounds to correct from inter-column and inter-system variation to obtain a K′ value.
# Reference Compounds: K′ values were determined for known bone targeted compounds, the bisphosphonate, alendronate and tetracycline.
compound,measurement,value
"NCCCC(O)(P(=O)(O)O)P(=O)(O)O [Alendronate, alendronate]",K′ value,3.7
